Where two headings read alike, the source gives them in different places.
Assays:
[1] = Biodistribution of 177Lu-labeled αMSH analogues in mice bearing B16F10 mouse melanoma; type: in vivo, C57BL/6J mice; conditions: mouse, iv, total radioactivity, C57BL/6J mice, B16F10 melanoma
Protocol: (§1) The B16-F10 mouse melanoma cells were cultured and inoculated in mice as described in Example 1.
(§2) For biodistribution studies, approximately 1-2 MBq of ^177Lu-labeled αMSH analogues via tail vein under anesthesia. At 1, 4, 24, and 120 h p.i., the mice were euthanized by CO2 inhalation. Organs/tissues were harvested and the radioactivity was measured as described in Example 1.

B16F10 mouse melanoma = test: as above; type: in vivo, C57BL/6J mice; conditions: C57BL/6J mice, B16F10 melanoma
Protocol: as §1, §2

tissue uptake at 1 h ([1]; male, seminal glands, 1 h p.i., read-out: Biodistribution, Seminal glands): 0.22 ± 0.35 %ID/g | tissue uptake at 4 h ([1]; male, seminal glands, 4 h p.i., read-out: Biodistribution, Seminal glands): 0.02 %ID/g | tissue uptake at 24 h ([1]; male, seminal glands, 24 h p.i., read-out: Biodistribution, Seminal glands): 0.01 %ID/g | tissue uptake at 120 h ([1]; male, seminal glands, 120 h p.i., read-out: Biodistribution, Seminal glands): 0.01 ± 0.01 %ID/g | tissue uptake at 1 h ([1]; male, testes, 1 h p.i., read-out: Biodistribution, Testes): 0.17 ± 0.06 %ID/g | tissue uptake at 4 h ([1]; male, testes, 4 h p.i., read-out: Biodistribution, Testes): 0.04 %ID/g | tissue uptake at 24 h ([1]; male, testes, 24 h p.i., read-out: Biodistribution, Testes): 0.03 %ID/g | tissue uptake at 120 h ([1]; male, testes, 120 h p.i., read-out: Biodistribution, Testes): 0.02 %ID/g | tissue uptake at 1 h ([1]; adrenal glands, 1 h p.i., read-out: Biodistribution, Adrenal glands): 0.54 ± 0.28 %ID/g | tissue uptake at 4 h ([1]; adrenal glands, 4 h p.i., read-out: Biodistribution, Adrenal glands): 0.13 ± 0.06 %ID/g | tissue uptake at 24 h ([1]; adrenal glands, 24 h p.i., read-out: Biodistribution, Adrenal glands): 0.23 ± 0.18 %ID/g | tissue uptake at 120 h ([1]; adrenal glands, 120 h p.i., read-out: Biodistribution, Adrenal glands): 0.02 ± 0.02 %ID/g | tissue uptake at 1 h ([1]; blood, 1 h p.i., read-out: Biodistribution, Blood): 0.49 ± 0.22 %ID/g | tissue uptake at 4 h ([1]; blood, 4 h p.i., read-out: Biodistribution, Blood): 0.02 %ID/g | tissue uptake at 24 h ([1]; blood, 24 h p.i., read-out: Biodistribution, Blood): 0.01 %ID/g | tissue uptake at 1 h ([1]; bone, 1 h p.i., read-out: Biodistribution, Bone): 0.18 ± 0.04 %ID/g | tissue uptake at 4 h ([1]; bone, 4 h p.i., read-out: Biodistribution, Bone): 0.07 ± 0.02 %ID/g | tissue uptake at 24 h ([1]; bone, 24 h p.i., read-out: Biodistribution, Bone): 0.06 ± 0.01 %ID/g | tissue uptake at 120 h ([1]; bone, 120 h p.i., read-out: Biodistribution, Bone): 0.04 ± 0.01 %ID/g | tissue uptake at 1 h ([1]; brain, 1 h p.i., read-out: Biodistribution, Brain): 0.02 %ID/g | tissue uptake at 4 h ([1]; brain, 4 h p.i., read-out: Biodistribution, Brain): 0.01 %ID/g | tissue uptake at 24 h ([1]; brain, 24 h p.i., read-out: Biodistribution, Brain): 0.01 %ID/g | tissue uptake at 1 h ([1]; fat, 1 h p.i., read-out: Biodistribution, Fat): 0.05 ± 0.02 %ID/g | tissue uptake at 4 h ([1]; fat, 4 h p.i., read-out: Biodistribution, Fat): 0.01 ± 0.01 %ID/g | tissue uptake at 24 h ([1]; fat, 24 h p.i., read-out: Biodistribution, Fat): 0.01 %ID/g | tissue uptake at 1 h ([1]; heart, 1 h p.i., read-out: Biodistribution, Heart): 0.19 ± 0.07 %ID/g | tissue uptake at 4 h ([1]; heart, 4 h p.i., read-out: Biodistribution, Heart): 0.03 %ID/g | tissue uptake at 24 h ([1]; heart, 24 h p.i., read-out: Biodistribution, Heart): 0.02 %ID/g | tissue uptake at 120 h ([1]; heart, 120 h p.i., read-out: Biodistribution, Heart): 0.01 %ID/g | tissue uptake at 1 h ([1]; intestine, 1 h p.i., read-out: Biodistribution, Intestine): 0.45 ± 0.2 %ID/g | tissue uptake at 4 h ([1]; intestine, 4 h p.i., read-out: Biodistribution, Intestine): 0.11 ± 0.06 %ID/g | tissue uptake at 24 h ([1]; intestine, 24 h p.i., read-out: Biodistribution, Intestine): 0.13 ± 0.04 %ID/g | tissue uptake at 120 h ([1]; intestine, 120 h p.i., read-out: Biodistribution, Intestine): 0.06 ± 0.07 %ID/g | tissue uptake at 1 h ([1]; kidneys, 1 h p.i., read-out: Biodistribution, Kidneys): 4.79 ± 0.92 %ID/g | tissue uptake at 4 h ([1]; kidneys, 4 h p.i., read-out: Biodistribution, Kidneys): 3.31 ± 0.66 %ID/g | tissue uptake at 24 h ([1]; kidneys, 24 h p.i., read-out: Biodistribution, Kidneys): 1.24 ± 0.46 %ID/g | tissue uptake at 120 h ([1]; kidneys, 120 h p.i., read-out: Biodistribution, Kidneys): 0.36 ± 0.05 %ID/g | tissue uptake at 1 h ([1]; liver, 1 h p.i., read-out: Biodistribution, Liver): 0.88 ± 0.16 %ID/g | tissue uptake at 4 h ([1]; liver, 4 h p.i., read-out: Biodistribution, Liver): 0.81 ± 0.08 %ID/g | tissue uptake at 24 h ([1]; liver, 24 h p.i., read-out: Biodistribution, Liver): 0.58 ± 0.14 %ID/g | tissue uptake at 120 h ([1]; liver, 120 h p.i., read-out: Biodistribution, Liver): 0.34 ± 0.03 %ID/g | tissue uptake at 1 h ([1]; lungs, 1 h p.i., read-out: Biodistribution, Lungs): 0.6 ± 0.19 %ID/g | tissue uptake at 4 h ([1]; lungs, 4 h p.i., read-out: Biodistribution, Lungs): 0.14 ± 0.04 %ID/g | tissue uptake at 24 h ([1]; lungs, 24 h p.i., read-out: Biodistribution, Lungs): 0.06 ± 0.02 %ID/g | tissue uptake at 120 h ([1]; lungs, 120 h p.i., read-out: Biodistribution, Lungs): 0.01 ± 0.01 %ID/g | tissue uptake at 1 h ([1]; muscle, 1 h p.i., read-out: Biodistribution, Muscle): 0.12 ± 0.05 %ID/g | tissue uptake at 4 h ([1]; muscle, 4 h p.i., read-out: Biodistribution, Muscle): 0.02 ± 0.01 %ID/g | tissue uptake at 24 h ([1]; muscle, 24 h p.i., read-out: Biodistribution, Muscle): 0.01 ± 0.01 %ID/g | tissue uptake at 1 h ([1]; pancreas, 1 h p.i., read-out: Biodistribution, Pancreas): 0.15 ± 0.05 %ID/g | tissue uptake at 4 h ([1]; pancreas, 4 h p.i., read-out: Biodistribution, Pancreas): 0.03 %ID/g | tissue uptake at 24 h ([1]; pancreas, 24 h p.i., read-out: Biodistribution, Pancreas): 0.03 ± 0.01 %ID/g | tissue uptake at 120 h ([1]; pancreas, 120 h p.i., read-out: Biodistribution, Pancreas): 0.01 %ID/g | tissue uptake at 1 h ([1]; spleen, 1 h p.i., read-out: Biodistribution, Spleen): 0.38 ± 0.11 %ID/g | tissue uptake at 4 h ([1]; spleen, 4 h p.i., read-out: Biodistribution, Spleen): 0.24 ± 0.03 %ID/g | tissue uptake at 24 h ([1]; spleen, 24 h p.i., read-out: Biodistribution, Spleen): 0.2 ± 0.04 %ID/g | tissue uptake at 120 h ([1]; spleen, 120 h p.i., read-out: Biodistribution, Spleen): 0.11 ± 0.01 %ID/g | tissue uptake at 1 h ([1]; stomach, 1 h p.i., read-out: Biodistribution, Stomach): 0.36 ± 0.22 %ID/g | tissue uptake at 4 h ([1]; stomach, 4 h p.i., read-out: Biodistribution, Stomach): 0.11 ± 0.02 %ID/g | tissue uptake at 24 h ([1]; stomach, 24 h p.i., read-out: Biodistribution, Stomach): 0.42 ± 0.18 %ID/g | tissue uptake at 120 h ([1]; stomach, 120 h p.i., read-out: Biodistribution, Stomach): 0.1 ± 0.08 %ID/g | tissue uptake at 1 h ([1]; thyroid, 1 h p.i., read-out: Biodistribution, Thyroid): 0.43 ± 0.11 %ID/g | tissue uptake at 4 h ([1]; thyroid, 4 h p.i., read-out: Biodistribution, Thyroid): 0.27 ± 0.06 %ID/g | tissue uptake at 24 h ([1]; thyroid, 24 h p.i., read-out: Biodistribution, Thyroid): 0.17 ± 0.01 %ID/g | tissue uptake at 120 h ([1]; thyroid, 120 h p.i., read-out: Biodistribution, Thyroid): 0.05 ± 0.02 %ID/g | tissue to tissue ratio at 1 h ([1]; tumour/blood, 1 h p.i., read-out: Tumour/blood): 19.2 ± 8.25 | tissue to tissue ratio at 4 h ([1]; tumour/blood, 4 h p.i., read-out: Tumour/blood): 414 ± 59 | tissue to tissue ratio at 24 h ([1]; tumour/blood, 24 h p.i., read-out: Tumour/blood): 652 ± 101 | tissue to tissue ratio at 120 h ([1]; tumour/blood, 120 h p.i., read-out: Tumour/blood): 466 ± 382 | tissue to tissue ratio at 1 h ([1]; tumour/kidney, 1 h p.i., read-out: Tumour/kidney): 1.75 ± 0.47 | tissue to tissue ratio at 4 h ([1]; tumour/kidney, 4 h p.i., read-out: Tumour/kidney): 2.46 ± 0.87 | tissue to tissue ratio at 24 h ([1]; tumour/kidney, 24 h p.i., read-out: Tumour/kidney): 3.08 ± 1.05 | tissue to tissue ratio at 120 h ([1]; tumour/kidney, 120 h p.i., read-out: Tumour/kidney): 1.44 ± 1.14 | tissue to tissue ratio at 1 h ([1]; tumour/muscle, 1 h p.i., read-out: Tumour/muscle): 75 ± 29.8 | tissue to tissue ratio at 4 h ([1]; tumour/muscle, 4 h p.i., read-out: Tumour/muscle): 452 ± 158 | tissue to tissue ratio at 24 h ([1]; tumour/muscle, 24 h p.i., read-out: Tumour/muscle): 320 ± 91.8 | tissue to tissue ratio at 120 h ([1]; tumour/muscle, 120 h p.i., read-out: Tumour/muscle): 117 ± 92.2 | excreta dose per gram or mL at 1 h ([1]; urine, 1 h p.i.): 222 ± 81.1 %ID/g | excreta dose per gram or mL at 4 h ([1]; urine, 4 h p.i.): 19.3 ± 4.21 %ID/g | excreta dose per gram or mL at 24 h ([1]; urine, 24 h p.i.): 0.94 ± 0.48 %ID/g | excreta dose per gram or mL at 120 h ([1]; urine, 120 h p.i.): 0.15 ± 0.07 %ID/g | Biodistribution, B16F10 tumour (B16F10 mouse melanoma; 1 h p.i.): 8.25 ± 1.94 % ID/g | Biodistribution, B16F10 tumour (B16F10 mouse melanoma; 4 h p.i.): 7.81 ± 2.16 % ID/g | Biodistribution, B16F10 tumour (B16F10 mouse melanoma; 24 h p.i.): 3.45 ± 0.30 % ID/g | Biodistribution, B16F10 tumour (B16F10 mouse melanoma; 120 h p.i.): 0.49 ± 0.36 % ID/g | Biodistribution, Blood (B16F10 mouse melanoma; 120 h p.i.): 0.00 ± 0.00 % ID/g | Biodistribution, Brain (B16F10 mouse melanoma; 120 h p.i.): 0.00 ± 0.00 % ID/g | Biodistribution, Fat (B16F10 mouse melanoma; 120 h p.i.): 0.00 ± 0.00 % ID/g | Biodistribution, Muscle (B16F10 mouse melanoma; 120 h p.i.): 0.00 ± 0.00 % ID/g
SMILES: CCCC[C@H](NC(=O)CN1CCC(NC(=O)CN2CCN(CC(=O)O)CCN(CC(=O)O)CCN(CC(=O)O)CC2)CC1)C(=O)N[C@H]1CC(=O)NCCCC[C@@H](C(N)=O)N(C)C(=O)[C@H](Cc2c[nH]c3ccccc23)NC(=O)[C@H](CCCNC(=N)N)N(C)C(=O)[C@@H](Cc2ccccc2)NC(=O)[C@H](Cc2c[nH]cn2)NC1=O [^177Lu-labeled CCZ01106, metal not drawn]

From US11395857B2, “Radiolabeled melanocortin 1 receptor-specific alpha-melanocyte-stimulating hormone analogues for imaging or therapy” (PROVINCIAL HEALTH SERVICES AUTHORITY, priority 2018, dated 2022)
